pEC50, pIC50: −log10 of the molar value.
Columns and labels:
Assay type in all cases: cell-based
[1] = tested on: NCI-H524 non-small cell lung cancer cells; experiment: CellTiter-Glo luminescent cell viability assay, NCI-H524 drug screening plate; details: for pIC50: NCI-H524 cells, CellTiter-Glo
Method: (§1) In example 1, CELLTITER-GLO was used to test nicardipine against non-small cell lung cancer. n) NCI-H524 cells and NCI-H446 cells were handled as described above, and NCI-H524 96-well cell culture plates and NCI-H446 96-well cell culture plates were obtained, respectively. The complete medium for NCI-H524 cells was RPMI-1640 (a live product), Cat #A1049101, with a cells/well density of 16000. a) DMSO was used to dilute the analyte nicardipine to 20 mM for use. b) 79 μL of the 20 mM analyte prepared in step a) was added to the first well in the first row of the dilution plate, and then 54 μL of DMSO solution was added to the second through ninth wells of the first row. 25 μL of solution was aspirated from the first to the second well, and after mixing well 25 μL of solution was aspirated from the second to the third well, and this was repeated until the 9th well in order to ensure that 3.16 dilution of the medication would be carried out one-by-one. b) 95 μl of cell-specific complete medium was added to the working plate, each medication to 9 wells. […] Testing • a) Before testing, the NCI-H524 96-well drug screening plate and the NCI-H446 96-well drug screening plate described in 3 above were stabilized to room temperature for 20-30 minutes. • b) An inverted microscope was used to observe the conditions of each group of cells in the culture plate and their death patterns, and any abnormal conditions were noted and retested. • c) 100 μl of CellTiter-Glo reagent (prepared as described in 1 above) was added to all drug screening plates and mixed evenly. • d) It was thoroughly oscillated in a 96-well microplate oscillator for 2 minutes to allow the cells to undergo full lysis. • e) It was stored away from light at room temperature for 15 minutes before carrying out luminescent signal detection to ensure signal stability. • f) An EnSpire multi-function plate reader was used at 570 nm to read the luminescent signals. • g) Data was processed and analyzed.

[2] = tested on: NCI-H446 small-cell lung cancer cells; experiment: CellTiter-Glo luminescent cell viability assay, NCI-H446 drug screening plate; details: for pIC50: NCI-H446 cells, CellTiter-Glo
Method: as §1, with “for NCI-H446” for “for NCI-H524”, “of 8000.” for “of 16000.”

[3] = tested on: SNU-449 human hepatoma cells; experiment: CellTiter-Glo luminescent cell viability assay, SNU-449 cells (same method)
Method: (§2) In the examples below, the product sources for the NCI-H524 non-small cell lung cancer cells, the NCI-H446 small-cell lung cancer cells, the SNU-449 human hepatoma cells, and the NCI-H810 human lung cancer cells, are as follows: c) The NCI-H524 96 well cell plates and the NCI-H446 96-well cell plates prepared in step 1 were removed from the incubator, and 10 μl of the cell culture media (10× final concentration) with varying drug concentrations as described in b) above was added to the NCI-H524 96-well cell culture and the NCI-H446 96-well cell culture plate row-by-row as shown in FIG. 1. It was placed into a CO2 incubator at 37° C. for 72 hours, obtaining the NCI-H524 96-well drug screening plate and the NCI-H446 96-well drug screening plate. • a) The CellTiter-Glo reagent buffer was thawed before using and stabilized to room temperature for use. • b) The CellTiter-Glo reagent frozen substrate was thawed before using and stabilized to room temperature for use. • c) 100 ml of stabilized CellTiter-Glo buffer was added to the container with CellTiter-Glo reagent frozen substrate to adequately resuspend it to form an enzyme/substrate mixture, also referred to as the CellTiter-Glo assay reagent. • d) It was gently mixed and vortexed and inverted multiple times to achieve a uniform solution. In general, the CellTiter-Glo substrate reagent will adequately dissolve within 1 minute. […]

[4] = tested on: NCI-H810 human lung cancer cells; experiment: CellTiter-Glo luminescent cell viability assay, NCI-H810 cells (same method)
Method: as §2

- pIC50 ([1]; Homo sapiens, NCI-H524, 72 h): 4.73
- pEC50 ([1]; Homo sapiens, FIG. 2, nicardipine sensitivity to non-small cell lung cancer (NCI-H524), 72 hours): 4.69
- pIC50 ([1]; 72 hours): 4.73
- pIC50 ([2]; Homo sapiens, NCI-H446, 72 h): 4.74
- pEC50 ([2]; Homo sapiens, FIG. 3, nicardipine sensitivity to small cell lung cancer (NCI-H446), 72 hours): 4.74
- pIC50 ([2]; 72 hours): 4.74
- pIC50 [3]: ≤ 4.00
- pIC50 [4]: ≤ 4.00
Compound: COC(=O)C1=C(C)NC(C)=C(C(=O)OCCN(C)Cc2ccccc2)C1c1cccc([N+](=O)[O-])c1 (centres unmarked) [nicardipine]
